The target in data set [1] is T1, Abscisic acid 8'-hydroxylase 3 (Arabidopsis thaliana, UniProt Q9FH76).
T1 sequence (Q9FH76 whole entry): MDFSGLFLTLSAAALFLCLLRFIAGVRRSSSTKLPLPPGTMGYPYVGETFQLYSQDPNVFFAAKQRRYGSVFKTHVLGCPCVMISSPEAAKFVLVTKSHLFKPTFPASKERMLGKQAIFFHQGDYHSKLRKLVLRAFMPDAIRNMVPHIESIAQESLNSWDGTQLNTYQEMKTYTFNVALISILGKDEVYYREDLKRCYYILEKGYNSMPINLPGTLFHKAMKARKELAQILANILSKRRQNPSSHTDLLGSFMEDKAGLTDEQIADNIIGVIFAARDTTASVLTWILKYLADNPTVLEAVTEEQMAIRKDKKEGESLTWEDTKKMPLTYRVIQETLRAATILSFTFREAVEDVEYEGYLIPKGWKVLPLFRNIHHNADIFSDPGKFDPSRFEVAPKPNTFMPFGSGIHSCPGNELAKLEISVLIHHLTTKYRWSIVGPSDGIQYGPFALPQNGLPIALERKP
The data set can be described thus: Inhibition of Arabidopsis recombinant CYP707A3.

The next data set relates to Radish. Nature of the data set: Induction of drought-stress tolerance in radish seedlings at 400 uM. Type of data set: functional, organism-based. Particulars: Raphanus sativus.
For data set [2], the target named is T1, Abscisic acid 8'-hydroxylase 3. Nature of the data set: Activity against CYP707A3 by rice seedling elongation assay at 30 uM. The data set is classed as functional. Particulars: oryza sativa.
For data set [3] the target is unchanged. The data set can be described thus: Activity against CYP707A3 by rice seedling elongation assay at 1 uM. Type of data set: functional. Particulars: oryza sativa.

Active and inactive are the calls of the source. No cut-off for these calls is given here.

Consider `C[C@H]1CCCC(C)(C)[C@@]1(O)/C=C/C=C\C(=O)O`, for which the Ki in data set [1] was determined as 1400 nM.
On to `C[C@@H]1CCC[C@H](O)[C@@]1(O)/C=C/C=C\C(=O)O` (racemic), for which the result in the data set with Radish was inactive.
For `C[C@H]1CCC[C@H](O)[C@@]1(O)/C=C/C=C\C(=O)O`, the Activity in data set [2] is on record as 96%. Moreover, the Ki in data set [1] stood at 140 nM. In addition, the result in the data set on Radish was Active.
In turn, `CC1=CC(=O)CC(C)(C)C1(O)/C=C/C(C)=C\C(=O)O` (stereo unspecified) [ABSCISIC ACID] had an Activity in data set [3] of 22%.

Broadly, the Ki is a measure of affinity in units of concentration, obtained from inhibition or displacement.

Source of the values: ChEMBL document CHEMBL1147805, “A new non-azole inhibitor of ABA 8'-hydroxylase: effect of the hydroxyl group substituted for geminal methyl groups in the six-membered ring” (Bioorg Med Chem Lett, 2006).
